A short description of data set [1]: Cell viability of peritoneal macrophages (MTT reduction). The class given is cell-based, Balb/c mice. Conditions: Balb/c, mouse, primary thioglycollate-elicited peritoneal macrophages, 5 μM pre-incubation 18 h, then LPS, read-out: Viability of the cells. The procedure: (§1) Peritoneal elicited cells were obtained from Balb/c mice (CENPALAB, Havana, Cuba). Primary mouse macrophages was collected from the peritoneal cavity 4 days after intraperitoneal injection with 1 ml of 4% Brewer's thioglicollate broth. Cell were maintained in RPMI 1640 supplemented with 10% heat-inactivated fetal bovine serum, 2 mM L-glutamine, 200 units/ml penicillin, and 200 μg/ml streptomycin at 37° C. in 5% CO2/[…].
(§2) Assay for Secretion of NO2-(Jin, F^29, Nathan, C, Radzioch, 0, and Ding, A. Cell, 1997, 88: 417-426). Cells were plated in 96-well plates at 2×10^6 cells /ml in 200 μl of medium and incubated at 37° C. for 2 h, then non-adherent cells were removed by repeated washing with PBS. Macrophage were pre-incubated with 5 μM of LALF peptide during 18 h, afterward were washed with RPMI medium in order to eliminated the peptide. Then the macrophages were treated 72 hr with LPS of E. coli 0111:B4, Sigma (1 μg/ml). Cell viability was assessed by mitochondrial-dependent reduction of MTT to formazan (Szabo^30, c, Mitchell, J A, Gross, S S, Thiemermann, C, and Vane, JR. J. Pharm. Exp. Therap., 1992, 265: 674-80). […] Absorbance at 540 nm was recorded in a microplate reader (SUMA) with sodium nitrite as standards (Green^28, L C, Wagner, D A, Glogowski, J, et al. Anal Biochem 1982; 126: 131-8). […]
In general terms: Tetrazolium dyes change colour on reduction, which living cells bring about.

For data set [2], the system named is TNF-α in mouse serum. As to the kind of experiment: Serum TNF after P. aeruginosa challenge in peptide-treated mice (ELISA). The class given is in vivo, mice BalB/c. Conditions: 14 μg i.p. 20 h before P. aeruginosa; 0-240 min; FIG. 4. A general note: In an ELISA, binding on a coated surface is turned into a signal by an enzyme label.
Procedure: Groups of mice received LALF peptide (14 μg/0.1 ml) or saline control (0.1 ml) intraperitoneally 20 hours prior to infectious challenge. […] Blood was collected for TNF quantification from the retroorbital sinus at the time 0, 20, 40, 60, 90, 120, 180, 240 min in the control group and peptide treated-mice. The concentration of TNF-α in mouse serum was determined using a specific ELISA kindly provided by.
Eight-week-old mice were injected i.p. with 14 μg of peptide in 0.1 ml saline or saline alone. Twenty hours after the mice were injected i.p. with a lethal doses of P. aeruginosa. At 0, 20, 40, 60, 90, 120, 180 and 240 min following the challenge, the mice were bled from the retroorbital sinus and the serum concentration of TNF was measured.
Data set [3] deals with TNFα from human mononuclear cells. Put plainly: TNF-α synthesis by human mononuclear cells (ELISA of supernatant). The class given is cell-based. Particulars: for TNF - α: 18 h, mean of three donors. The procedure:
Venous blood was obtained from healthy volunteers and Ficoll-Hypaque centrifugation, fractionated mononuclear cells. The mononuclear cells were washed and resuspended in endotoxic-free RPMI 1640 medium supplemented with 10% fetal calf serum. 30×10^6 cells were aliquoted into plates p-60 (Nunc, Denmark). The cells were incubated with 14 or 28 μg/ml LALF at 37° C. for 18 hours in 5% CO2 and then centrifuged at 3000 rpm during 5 min. The synthesis of TNFα in the supernatant was determined by specific enzyme-linked immunoadsorbent assay (ELISA), kindly provided by Dr. W. Buurman (University Hospital Maastrich, The Netherlands).

Data set [4] relates to TNF-α in peritoneal macrophages. As to the kind of experiment: TNF-α production in LPS-activated peritoneal macrophages pre-incubated with peptide. The class given is cell-based, Balb/c mice. Conditions: 5 μM pre-incubation 18 h, then LPS 1 μg/ml; 1-24 h; FIG. 6. The procedure: as §1
TNF-α assay: Cells were plated in 96-well plates at 2×10^6 cells/ml in 200 μl of medium and incubated at 37° C. for 2 h. Non-adherent cells were removed by repeated washing with PBS. Macrophages were pre-incubated with 5 μM of LALF peptide during 18 h, afterward were washed with RPMI medium in order to eliminate the peptide. Then macrophages were treated with LPS of E. coli 0111:B4, Sigma (1 μg/ml). TNF-α was determined in supematants from cultured cells at the time 1 h, 2 h, 4 h, 6 h and 24 h used a kit of ELISA kindly provided by [Dr. W. Buurman Univ. Hosp. Maastrich, Netherlands].
FIG. 6: Regulatory effect of LALF derived-peptide on TNF-α production in stimulated peritoneal macrophages. The macrophages were pretreated with 5 μM of LALF peptide during 18 hours and then the cells were activated with 1 μg of E. coli LPS. TNF-α was measured in the cells cultured supernatants at different time.

Data set [5] deals with TNF-α in mouse serum. Put plainly: Serum TNF-α after intravenous injection of peptide in mice (ELISA). The class given is in vivo, mice BalB/c. Particulars: 50 μg intravenously; serum at 0 h, 6 h, 24 h and 48 h; FIG. 3. The protocol:
This approach was developed in mice BalB/c between 6-8 old. The mice were injected intravenously with 50 μg of peptide in 0.1 ml [2.5 mg/kg of body weight] or saline solution as a control. The behavior of animals was observed each 4 hours during 24 h. Survival was followed for one week. Blood was collected for TNF-α quantification from the retroorbital sinus at the time 0 h. 6 h, 24 h and 48 h in the control group and peptide treated-mice. The concentration of TNF-α in mouse serum was determined using a specific ELISA kindly provided by Dr. W. Buurman (University Hospital Maastrich, The Netherlands).

The test system of a further data set is Pseudomona aerukinosa. As to the kind of experiment: Survival in mice model of fulminating Gram-negative peritoneal sepsis. The class given is in vivo, mice BalB/c. The protocol: A model of fulminating Gram-negative peritoneal sepsis was developed in mice BalB/c to characterize the efficacy of LALF peptide in protecting an immunologically intact host against serious infections. Groups of mice received LALF peptide (14 μg/0.1 ml) or saline control (0.1 ml) intraperitoneally 20 hours prior to infectious challenge. A doses of Pseudomona aerukinosa (2×10^8 bacterial/mice) producing a total mortality of approximately 90% (Browder et al., 1987, Surgery. Vol. 102: 206-214) was used in order to induce an experimental peritonitis. Survivor's mice were counted each 24 hours during 120 hours after bacterial challenge. Survival data were analyzed by statistical test Kaplan-Meyer, the significance analysis was determined using a long-rank test, table 5. Blood was collected for TNF quantification from the retroorbital sinus at the time 0, 20, 40, 60, 90, 120, 180, 240 min in the control group and peptide treated-mice. The concentration of TNF-α in mouse serum was determined using a specific ELISA kindly provided by. Dr. W. Buurman (University Hospital Maastrich, The Netherlands). FIG. 4.

Data set [6] concerns NO production in peritoneal macrophages. As to the kind of experiment: NO2- secretion (Greiss) in LPS-activated peritoneal macrophages pre-incubated with peptide. The class given is cell-based, Balb/c mice. Particulars: 5 μM pre-incubation 18 h, then LPS 1 μg/ml 72 h; FIG. 7. The procedure:
as §1
as §2, with “Macrophage were pre-incubated with 5 μM of LALF peptide during 18 h, afterward were washed with RPMI medium in order to eliminated the peptide. Then the macrophages were treated 72 hr with LPS of E. coli 0111:B4, Sigma (1 μg/ml).” left out
FIG. 7: Regulatory effect of LALF derived-peptide on NO production in stimulated peritoneal macrophages. […] Levels of NO were measured in the cells cultured supernatants using the Greiss method.

Here are results for one molecule from US6632793B1, “Immunological activity for a peptide of the limulus anti-LPS factor” (Centro de Ingenieria Genetica y Biotecnologia, priority 1997, dated 2003).

Where a SMILES comes first, the peptide text is derived from it. A value given as a limit tells only on which side of the number the result lay.

One may read the viability as the share of living cells, or the viability signal relative to a control. Turning to `CC[C@H](C)[C@H](NC(=O)[C@H](CCCNC(=N)N)NC(=O)[C@H](Cc1ccc(O)cc1)NC(=O)[C@H](Cc1c[nH]cn1)NC(=O)[C@@H](N)CS)C(=O)N[C@@H](CCCCN)C(=O)N1CCC[C@H]1C(=O)N[C@H](C(=O)N[C@@H](Cc1ccccc1)C(=O)N[C@@H](CCCNC(=N)N)C(=O)N[C@@H](CCCNC(=N)N)C(=O)N[C@@H](CC(C)C)C(=O)N[C@@H](CCCCN)C(=O)N[C@@H](Cc1c[nH]c2ccccc12)C(=O)N[C@@H](CCCCN)C(=O)N[C@@H](Cc1ccc(O)cc1)C(=O)N[C@@H](CCCCN)C(=O)NCC(=O)N[C@@H](CCCCN)C(=O)N[C@@H](Cc1ccccc1)C(=O)N[C@@H](Cc1c[nH]c2ccccc12)C(=O)N[C@@H](CS)C(=O)O)[C@@H](C)O` [LALF] (H-CHYRIKPTFRRLKWKYKGKFWC-OH), the viability at 18 h, 5 µM in data set [1] is no less than 98%. Besides, the “Effect on systemic TNF after bacterial challenge (in words)” value in the data set with TNF-α in mouse serum [2] was “induced a decrease of the proinflammatory cytokine TNF”. Moreover, the “TNF - α” value in data set [3] (14 μg/ml) is 0.84 ng/mL; in data set [3] (28 μg/ml), 0.80 ng/mL. The “TNF-α levels versus control buffer treated cells (in words)” value in data set [3] (14-28 μg/ml alone) is reported as “did not induce increased levels of TNF-α over the control buffer treated cells”. For the same molecule, the “TNF levels in LPS-activated macrophages (in words)” value in data set [4] is “down regulated”. For the same molecule, the “TNF-α production in vivo (in words)” value in the data set on TNF-α in mouse serum [5] is “does not stimulate TNF-α production”. In the data set on Pseudomona aerukinosa (14 μg/0.1 ml intraperitoneally 20 hours prior to challenge with 2×10^8 bacteria/mouse, followed 120 hours), the “Survival (%)” value amounted to 36%. For the same molecule, the “Protection from lethal bacterial challenge (in words)” value in the data set with Pseudomona aerukinosa (administrated prophylactically) is recorded as “protects mice from lethal bacterial challenge”. Besides, in data set [6], the “NO production in LPS-activated macrophages (in words)” value is “up regulated”.
